# In patent publication US20220339135A1, “COMPOSITIONS AND METHODS FOR MODULATING AN INFLAMMATORY RESPONSE” (Enzychem Lifesciences Corporation, priority 2019, published 2022):
# What was measured:
# [1] = test system: ERK, p38 MAPK, JNK in THP-1 cells; test: Gemcitabine-induced phosphorylation of ERK, p38 MAPK, JNK, western blot; type: cell-based, human
# Protocol: Total cells were lysed on ice for 30 minutes in RIPA buffer composed of 50 mM Tris-HCl (pH 7.4), 150 mM NaCl, 2 mM EDTA, 1% NP-40, 0.5% sodium deoxycholate, 0.1% SDS, 1 mM phenylmethylsulfonyl fluoride (PMSF), 10 mM sodium fluoride, 2 mM sodium pyrophosphate, 10 mM β-glycerophosphate, 10 mM sodium orthovanadate. Membrane-and-cytoplasmic protein fractions of cultured cells were obtained with Mem-PER Plus Membrane Protein Extraction Kit (Thermo Scientific, MA, USA) according to the manufacturer's instructions. The lysates were centrifuged at 13,000 rpm for 20 minutes at 4° C. and protein concentrations were determined using the Bradford assay (Bio-Rad Laboratories). Denatured samples were mixed with a 5×SDS-PAGE loading buffer and heated to 100° C. for 15 min. The samples were separated on the 10% of SDS-PAGE gel and transferred to polyvinylidene difluoride (PVDF) membranes (Merck Millipore Corporation, MA, USA). Membranes were blocked with 5% non-fat milk in PBS (10 mM Tris-HCl, pH7.5, 150 mM NaCl) for 1 h and probed with primary antibodies against ERK1/2, phospho-ERK1/2, P38, phospho-P38, SAPK/JNK, phospho-SAPK/JNK, Na, K-ATPase, α-Tubulin, and β-actin from Cell Signaling Technology (MA, USA), Rac1 from Merck Millipore Corporation), p47phox and phospho-p47phox from Invitrogen, adenosine receptor A1 from Abcam, β arrestin-1 from Santa Cruz Technology for overnight at 4° C. The blots were washed and incubated with appropriate secondary antibodies and visualized using Pierce ECL Western Blotting Substrate (Thermo Scientific).
# [2] = test system: NET formation of neutrophil, BALF derived cells; test: NETosis of PAK-introduced BALF derived cells; type: cell-based, mice; settings: PAK/PLAG vs PAK
# Protocol: 2 hours after PAK infection, BALF derived cells were harvested and detected extracellular DNA-elastase complex by using ELISA and visualized by using confocal microscopy (×400) or scanning electron microscope (SEM) (×8000). […] were washed with PBS and mounted in DAPI-containing fluorescence microscopy mounting medium (Invitrogen). Samples were analyzed with a laser scanning confocal microscope (Carl Zeiss, Oberkochen, Germany).
# [3] = Whole-body autoradiography after single oral [14C] PLAG; type: in vivo, rats; settings: 200 mg/kg oral
# Protocol: Tissue distribution of the PLAG after single oral administration of [^14C] PLAG was conducted in Biotoxtech (Korea) using whole-body autoradiography. Crl:CD (SD) strain albino rats received the single oral administration of [^14C] PLAG at a dose of 200 mg/kg and the animals were sacrificed by CO2 asphyxiation at defined times, and whole body autoradiograms were prepared to investigate the tissue distribution of radioactivity and its time course. Sampling time points are 15 minutes, 1 hour, 8 hours, and 24 hours after administration. The carcass was sliced into 40 micro meter-thick coronal plane sections that were collected on adhesive tape (NA-70, Nakagawa). The freeze-dried sections covered with a protective membrane were placed in contact with imaging plate (BAS-SR2025, Fuji Photo Film) and the plates were exposed in lead-sealed boxes at room temperature for 24 hours. After exposure, the radioactivity recorded on the imaging plate was analyzed using a bio-imaging analyzer system.
# [4] = test system: intracellular ROS in BMDMs and THP-1 cells; test: Gemcitabine-induced intracellular ROS measurement; type: cell-based; settings: gemcitabine 10 μg/mL 3 h, dose-dependent
# Protocol: A total of 1×10^6 BMDMs and THP-1 were seeded, cultured, and subsequently exposed to various concentrations of PLAG with gemcitabine (10 μg/mL) for 3 h. The cells were then incubated with the ROS-sensitive probe CM-H2DCFDA (Invitrogen™) for 30 min at 37° C. in the dark. After incubation, the cells were washed 3 times with PBS and immediately analyzed using FACS verse (BD biosciences) with an excitation/emission peak at 495/527 nm. A total of 10,000 cells were counted in each determination, and results presented are means±S.E. of three independent experiments. Intracellular ROS production was also measured with a confocal laser scanning microscope (Zeiss LSM 800, Oberkochen, Germany). After incubating CM-H2DCFDA as above, the cells were fixed with 4% paraformaldehyde for 30 min and washed 3 times with PBS before photographing. The excitation and emission wavelengths were identical as described above, and a minimum of 5 random fields was captured for each culture.
# [5] = test system: ERK, JNK, p38MAPK in differentiated HaCaT cells; test: IMQ-induced MAPK phosphorylation, western blot; type: cell-based; settings: PLAG 1, 10, 100 μg/ml, dose-dependent
# Protocol: Differentiated HaCaT cells were divided into three groups: 1) control (non-treated) group, 2) IMQ treated group, and 3) IMQ/PLAG treated group. For IMQ treated group, cells were stimulated with IMQ (5 μg/ml) for 0, 20, 60 minutes. For IMQ/PLAG treated group, cells were pre-incubated with PLAG (1, 10, 100 μg/ml) for 1 hour and then stimulated with IMQ (5 μg/ml) for an hour. Then, cells were harvested. Cells were ruptured with 1×RIPA lysis buffer (Cell Signaling Technology) containing the protease inhibitor (Roche, Indianapolis, Ind., USA), and phosphatase inhibitor (Thermo Fisher Scientific Inc.) on ice. The cell lysates were then clarified by centrifugation and samples were analyzed on polyacrylamide gels. Each sample was separated by sodium dodecyl sulfate-polyacrylamide gel electrophoresis (SDS-PAGE) on polyacrylamide gels and the proteins were blotted onto a PVDF membrane (Bio-Rad). The membrane was blocked with 5% BSA (Gibco) in PBS containing 0.05% Tween-20 (Merck Millipore, Billerica, Mass., USA). The membrane was incubated with antibodies against phosphor-ERK (Thr202/Tyr204), ERK, phosphor-JNK (Thr183/Tyr185), SAPK/JNK, phosphor-p38MAPK (Thr180/thr182), and p38MAPK, overnight at 4° C. All antibodies were purchased from Cell signaling technology. Target proteins were detected with Immobilon Western Chemiluminescent HRP Substrate (Merck Millipore).
smiles,measurement,setting,value
"CCCCC/C=C\C/C=C\CCCCCCCC(=O)OC(COC(C)=O)COC(=O)CCCCCCCCCCCCCCC (racemic) [PLAG, 1-palmitoyl-2-linoleoyl-3-acetylglycerol]",gemcitabine-induced phosphorylation of ERK and p38 MAPK,[1],dose-dependently decreased
same,gemcitabine-induced phosphorylation of JNK,[1],did not
same,NET formation of neutrophil,[2],accelerated
same,radioactivity in stomach and intestinal tract incl. luminal contents,[3]; 15 minutes to 1 hour,high levels
same,radioactivity in the liver and brown fat tissues,[3]; 8 hours,Moderate levels
same,radioactivity in the luminal side of the stomach,[3]; 8 hours,high levels
same,radioactivity in the liver,[3]; 24 hours,low levels
same,radioactivity in other tissues,[3]; any sampling time point,not different from background level
same,radioactivity in the liver,[3]; up to 1 hour,Low levels
same,gemcitabine-induced intracellular ROS production,[4],effectively reduced
same,"IMQ-induced phosphorylation of ERK, JNK, p38 MAPK",[5],attenuated
